pEC50: −log10 of the molar value.

Sequence of S1P1 (P21453 whole entry, species assumed): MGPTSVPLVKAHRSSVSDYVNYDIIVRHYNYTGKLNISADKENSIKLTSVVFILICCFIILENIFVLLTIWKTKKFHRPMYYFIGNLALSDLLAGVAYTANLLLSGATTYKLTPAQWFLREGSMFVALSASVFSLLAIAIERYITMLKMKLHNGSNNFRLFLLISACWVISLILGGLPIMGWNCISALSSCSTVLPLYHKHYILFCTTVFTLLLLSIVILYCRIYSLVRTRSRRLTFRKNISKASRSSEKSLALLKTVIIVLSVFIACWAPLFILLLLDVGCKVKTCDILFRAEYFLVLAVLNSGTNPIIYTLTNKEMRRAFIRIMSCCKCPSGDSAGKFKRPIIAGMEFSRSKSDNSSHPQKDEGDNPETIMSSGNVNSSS

For this test, the target named is S1P1 (Homo sapiens (Human), UniProt P21453). Kind of test: 35S-GTPγS binding assay, S1P1 membranes. It counts as biochemical. As to conditions: membranes from CHO cells expressing S1P1; read-out: S1P1 GTPyS EC50. As to the method:
Membranes were prepared from CHO cells expressing S1P1 or S1P3 for use in ligand and […] binding studies. Cells were suspended in 50 mM TRIS, pH 7.4, 2 mM EDTA, 250 mM Sucrose (buffer A) and 1× Complete protease inhibitor cocktail (Roche), and disrupted at 4° C. by nitrogen decompression using a cell disruption bomb (Parr Instrument). Following centrifugation at 1000 RPM for 10 min at 4° C., the supernatant was suspended in buffer A and centrifuged again at 19000 RPM for 60 min at 4° C. The pellet was then suspended in 10 mM HEPES, pH 7.4, 1 mM EDTA, 250 mM Sucrose (Buffer B), and 1× Complete EDTA-free protease inhibitor cocktail and homogenized using a potter. Membranes were flash frozen in liquid nitrogen and stored at −80° C. [33P]sphingosine 1-phosphate (3000 Ci/mmol; American Radiolabeled Chemicals, Inc.) was added to test compounds in DMSO. […] Binding was performed for 60 min at room temperature on a shaker and bound radioactivity was measured on a PerkinElmer 1450 MicroBeta counter. Specific binding was calculated by subtracting remaining radioactivity in the presence of 1000-fold excess of unlabeled S1P. Binding data were analyzed using the GraphPad Prism program.
The assay was initiated with the addition of 20 μl of 1.5 nM [35S]-GTPγS (1100 Ci/mmol; GE Healthcare) in assay buffer. After 60 min incubation at 30° C. on a shaker, plates were centrifuged for 10 min at 2000 RPM. Supernatant was discarded and membrane bound radioactivity was measured on a PerkinElmer 1450 MicroBeta counter. Triplicate samples were averaged and expressed as % response relative to SIP activation in absence of compound (n=2).
For orientation: Binding of GTPγS marks nucleotide exchange on a G protein.
What is called pEC50 is −log10 of the EC50, conventionally taken in molar units. Regarding `CCCN(CC1CC1)c1cc(C(=O)Nc2ccc(CNC)cc2C)ncn1` [Example 1-111], the pEC50 was 6.25. The figure for `CS(=O)(=O)c1ccc(NC(=O)c2cc(N(CC3CC3)C3CCCCC3)ncn2)cc1` [Example 1-112] is 6.71; for `Cc1cc(O)ccc1NC(=O)c1cc(N(C)C2CCCCC2)ncn1` [Example 1-21] it is 6.18; for `COCCN(c1cc(C(=O)Nc2ccc3[nH]ncc3c2)ncn1)C(C)C` [Example 1-87] it is 6.67. In the case of `O=C(Nc1ccc(S(=O)(=O)NCC(O)CO)cc1)c1cc(N(CC2CC2)C2CCCCC2)ncn1` (stereo not shown) [Example 1-51] it was 7.22. The figure for `COC(=O)C(C)(C)NCc1ccc(NC(=O)c2cc(N(CC3CC3)C3CCCCC3)ncn2)cc1` [Example 1-83] is 5.94; for `CCCN(CC1CC1)c1cc(C(=O)Nc2ccc3nn(CC(=O)OCC)cc3c2)ncn1` [Example 1-120] it is 6.22; for `CCCN(CC1CC1)c1cc(C(=O)Nc2ccc(CN3CCCC3=O)cc2C)ncn1` [Example 1-98] it is 6.15. As to `CCCN(CC1CC1)c1cc(C(=O)Nc2cccc(Cn3cncn3)c2)ncn1` [Example 1-152], the pEC50 was 5.95. In the case of `CCCN(CC1CC1)c1cc(C(=O)Nc2ccc(CN(C)C)cc2C)ncn1` [Example 1-94] it was 6.58; in that of `CCCN(CC1CC1)c1cc(C(=O)Nc2ccc(CN3CCC(O)CC3)cc2C)ncn1` [Example 1-140], 5.85. The figure for `CCCN(CC1CC1)c1cc(C(=O)Nc2ccc(S(=O)(=O)N(C)CC(=O)O)cc2C)ncn1` [Example 1-102] is 5.91.

In the case of `O=C(Nc1ccc(Cn2cncn2)cc1)c1cc(N(CC2CC2)C2CCCCC2)ncn1` [Example 1-137], the pEC50 is 6.46.

`CCCN(CC1CC1)c1cc(C(=O)Nc2ccc(CNCCOC)cc2C)ncn1` [Example 1-95]: the pEC50 was 6.09.

As to `CCCN(CC1CC1)c1cc(C(=O)Nc2ccc(CN)cc2)ncn1` [Example 1-88], the pEC50 was 7.00. The figure for `CCCN(CC1CC1)c1cc(C(=O)Nc2ccc(CN3CCC(O)C3)cc2C)ncn1` (stereo not shown) [Example 1-142] is 6.33; for `CN(c1cc(C(=O)Nc2ccc(S(=O)(=O)NCCO)cc2)ncn1)C1CCCCC1` [Example 1-37] it is 6.04. In the case of `CCOC(=O)CCCS(=O)(=O)c1ccc(NC(=O)c2cc(N(CC3CC3)C3CCCCC3)ncn2)cc1` [Example 1-131] it was 5.77; in that of `Cc1cc(O)ccc1NC(=O)c1cc(NC2CCCCC2C)ncn1` (stereo not shown) [Example 1-24], 5.77. In the case of `CCCN(CC1CC1)c1cc(C(=O)Nc2ccc(S(=O)(=O)NCC(=O)O)cc2C)ncn1` [Example 1-103] it was 6.68; in that of `CN(c1cc(C(=O)Nc2ccnc3ccccc23)ncn1)C1CCCCC1` [Example 1-43], 5.87. With `O=C(Nc1ccc(C(=O)O)c(F)c1)c1cc(N(CC2CC2)C2CCCCC2)ncn1` [Example 1-122], the pEC50 is 5.36.

As for `COCCN(c1cc(C(=O)Nc2ccc3[nH]ncc3c2)ncn1)C1CCCCC1` [Example 1-66], the negative logarithm of the EC50 (pEC50) is 7.49. The figure for `Cc1cc(O)ccc1NC(=O)c1cc(NC2CCCCCC2)ncn1` [Example 1-23] is 6.01. The figure for `CCNS(=O)(=O)c1ccc(NC(=O)c2cc(N(C)C3CCCCC3)ncn2)cc1` [Example 1-31] is 5.70.

For the compound `COc1cc(NS(C)(=O)=O)ccc1NC(=O)c1cc(NC2CCCCC2)ncn1` [Example 1-27], the pEC50 is 6.43. Take `CCCN(CC1CC1)c1cc(C(=O)Nc2ccc(CS(=O)(=O)CCC(=O)O)cc2)ncn1` [Example 1-135]: the pEC50 was 5.51.

Take `CCCN(CC1CC1)c1cc(C(=O)Nc2ccc(CN3CCC(C(=O)O)CC3)cc2C)ncn1` [Example 1-138]: the pEC50 is 6.35.

On to `CCCN(CC1CC1)c1cc(C(=O)Nc2cccc3[nH]ncc23)ncn1` [Example 1-134], for which the pEC50 is 6.23. In the case of `CCCN(CC1CC1)c1cc(C(=O)Nc2ccc(CN3CCCC(CO)C3)cc2C)ncn1` (stereo not shown) [Example 1-141], the pEC50 was 5.64.

For the compound `CCCN(CC1CC1)c1cc(C(=O)Nc2ccc(CS(=O)(=O)CCC(=O)OCC)cc2)ncn1` [Example 1-119], the pEC50 is 5.30. In the case of `Cn1cnnc1-c1ccc(NC(=O)c2cc(N(CC3CC3)C3CCCCC3)ncn2)cc1` [Example 1-136] it was 5.69. In the case of `CCCN(CC1CC1)c1cc(C(=O)Nc2cccc(-n3ccnc3)c2)ncn1` [Example 1-147] it was 7.42; in that of `CCOC(=O)CCS(=O)(=O)Cc1ccc(NC(=O)c2cc(N(CC3CC3)C3CCCCC3)ncn2)cc1` [Example 1-130], 6.27. In the case of `CCCN(CC1CC1)c1cc(C(=O)Nc2ccc(-n3cncn3)cc2)ncn1` [Example 1-146] it was 6.55. Turning to `CCCN(CC1CC1)c1cc(C(=O)Nc2ccc3[nH]nc(CCC(=O)OC)c3c2)ncn1` [Example 1-123], the pEC50 was 6.07.

For `CCCN(CC1CC1)c1cc(C(=O)Nc2ccc(S(C)(=O)=O)cc2)ncn1` [Example 1-110], the pEC50 is 5.63. The figure for `CCCN(CC1CC1)c1cc(C(=O)Nc2ccc(S(=O)(=O)NCCOC)cc2C)ncn1` [Example 1-106] is 6.69; for `NC(=O)c1ccc(NC(=O)c2cc(N(CC3CC3)C3CCCCC3)ncn2)cc1` [Example 1-50] it is 7.14. The figure for `CCCN(CC1CC1)c1cc(C(=O)Nc2ccc(CN3CCC3)cc2C)ncn1` [Example 1-154] is 6.09; for `CCCN(CCC)c1cc(C(=O)Nc2ccc(CN)cc2)ncn1` [Example 1-72] it is 6.30; for `CCCN(CC1CC1)c1cc(C(=O)Nc2ccc3c(c2)CNCC3)ncn1` [Example 1-92] it is 6.63. The figure for `O=C(Nc1ccc(CN2CCNCC2)cc1)c1cc(N(CC2CC2)C2CCCCC2)ncn1` [Example 1-78] is 6.48; for `O=C(O)CCS(=O)(=O)Cc1ccc(NC(=O)c2cc(N(CC3CC3)C3CCCCC3)ncn2)cc1` [Example 1-133] it is 6.65. In the case of `CCOCN(CCOC)c1cc(C(=O)Nc2ccc(S(N)(=O)=O)cc2C)ncn1` [Example 1-59], the negative-log EC50 (pEC50) was 6.25. In the case of `Cc1cc(S(N)(=O)=O)ccc1NC(=O)c1cc(OC2CCCCC2)ncn1` [Example 1-65] it was 4.88; in that of `COCCN(CC1CC1)c1cc(C(=O)Nc2ccc(CN)cc2)ncn1` [Example 1-89], 5.83. In the case of `CCCN(CC1CC1)c1cc(C(=O)Nc2ccc3nn(CC(=O)N(C)C)cc3c2)ncn1` [Example 1-114], the pEC50 is 5.88. In the case of `CCCN(CC1CC1)c1cc(C(=O)Nc2ccc(CNC(C)C(=O)O)cc2C)ncn1` (stereo not shown) [Example 1-104] it was 6.29; in that of `CCCN(CC1CC1)c1cc(C(=O)Nc2cccc(Cn3cccn3)c2)ncn1` [Example 1-148], 5.98; in that of `CCCN(CC1CC1)c1cc(C(=O)Nc2ccc3[nH]cnc3c2)ncn1` [Example 1-125], 5.56. In the case of `CCCN(CC1CC1)c1cc(C(=O)Nc2ccc(CN(C)CCO)cc2C)ncn1` [Example 1-96] it was 6.41. In the case of `CCCN(CC1CC1)c1cc(C(=O)Nc2ccc3nn(CC(=O)O)cc3c2)ncn1` [Example 1-121] it was 5.99. Consider `CCCN(CC1CC1)c1cc(C(=O)Nc2ccc(CN3CCC[C@@H]3COC)cc2C)ncn1` [Example 1-139], for which the pEC50 was 5.61.

For `CCCN(c1cc(C(=O)Nc2ccc3[nH]ncc3c2)ncn1)C(C)C` [Example 1-67], the pEC50 was 7.17. In the case of `CCCN(CC1CC1)c1cc(C(=O)Nc2ccc3nn(CC(N)=O)cc3c2)ncn1` [Example 1-118] it was 5.20. In the case of `CCCN(CC1CC1)c1cc(C(=O)Nc2cccc(Cn3ccnc3)c2)ncn1` [Example 1-153] it was 6.32; in that of `CCCN(CC1CC1)c1cc(C(=O)Nc2cccc(-n3cncn3)c2)ncn1` [Example 1-143], 7.10; in that of `CCCN(CC1CC1)c1cc(C(=O)Nc2ccc(S(=O)(=O)NCCCC(=O)O)cc2C)ncn1` [Example 1-108], 6.62. In the case of `CCCN(CC1CC1)c1cc(C(=O)Nc2cccc(-n3ccnc3C)c2)ncn1` [Example 1-144], the pEC50 is 5.81. Consider `CCCN(CC1CC1)c1cc(C(=O)Nc2ccc(CN(C)CC(=O)O)cc2C)ncn1` [Example 1-128], for which the pEC50 was 6.09. The figure for `Cc1cc(S(=O)(=O)N(C)CC(=O)O)ccc1NC(=O)c1cc(N(CC2CC2)C2CCCCC2)ncn1` [Example 1-101] is 6.90; for `O=C(Nc1ccc(O)c(F)c1)c1cc(NC2CCCCC2)ncn1` [Example 1-14] it is 5.80.

With `CCCN(CC1CC1)c1cc(C(=O)Nc2ccc(CN3CCOCC3)cc2C)ncn1` [Example 1-93], the negative-log EC50 (pEC50) was 5.83. The figure for `CCCN(CC1CC1)c1cc(C(=O)Nc2ccc3c(cnn3CC(=O)O)c2)ncn1` [Example 1-116] is 5.49; for `CCC(NCc1ccc(NC(=O)c2cc(N(CC3CC3)C3CCCCC3)ncn2)cc1)C(=O)O` (stereo not shown) [Example 1-80] it is 6.54; for `O=C(Nc1ccncc1)c1cc(N(CC2CC2)C2CCCCC2)ncn1` [Example 1-49] it is 6.97.

The record behind these values is US9150519B2, “6-amino-pyrimidine-4-carboxamide derivatives and related compounds which bind to the sphingosine 1-phosphate (S1P) receptor for the treatment of multiple sclerosis” (MERCK SERONO SA, priority 2007, dated 2015).
